Data on two compounds can be found in US20210260010A1, “COMPOSITIONS AND METHODS FOR THE REDUCTION OR TREATMENT OF INFLAMMATION” (AXCELLA HEALTH INC., priority 2018, published 2021).

The test system of experiment [1] is MCP1/CCL2. In words: MCP1/CCL2 secretion by primary human hepatocytes exposed to free fatty acids and TNF-α (ELISA). It is filed as cell-based. As to conditions: for MCP1 expression relative to Control- Donor 1, Mean: donor 1 hepatocytes; for MCP1 expression relative to Control- Donor 1, Mean / MCP1 expression relative to Control- Donor 2, Mean: FFA + TNF-α, baseline subtracted; for MCP1 expression relative to Control- Donor 2, Mean: donor 2 hepatocytes; for MCP1/CCL2 secretion (baseline subtracted): primary human hepatocytes from two healthy donors, FFA 250 uM + TNF-α 1 ng/ml. As to the method:
Hepatocyte lipotoxicity appears to be a central driver of hepatic cellular injury via oxidative stress and endoplasmic reticulum (ER) stress. The ability of amino acids to influence steatosis (lipid accumulation) and inflammation in hepatocytes was assessed using human primary hepatocytes (Lonza, TRL).
Primary hepatocytes lot nos. from two healthy human donors were seeded on day 0 at density of 6e04 cells in 96 well optical microplates (Thermofisher) in hepatocyte plating media (William's E medium (Gibco) supplemented with 10% heat-inactivated FBS (Atlanta Bio), 2 mM Glutamax (Gibco) and 0.2% Primocin (InVivoGen) and incubated for 6 hours at 37° C., 5% CO2. After 6 hours, cells were washed twice and incubated overnight at 37° C., 5% CO2 with Hepatocytes defined medium (Corning) supplemented with 2 mM Glutamax (Gibco) and 1× Penicillin/Streptomycin. On day 1, cells were washed twice and incubated for 24 h in the hepatocyte culture media in the same conditions described above.
On day 2, cells were washed twice with DPBS 1× (Gibco) and maintained in amino acid-free WEM (US Biologicals) containing a defined custom amino acid concentration based on the mean physiological concentrations in blood. The values are published in the Human Metabolome Database (Wishart D S, Tzur D, Knox C, et al., HMDB: the Human Metabolome Database. Nucleic Acids Res. January 2007; 35(Database issue):D521-6. 17202168; which is hereby incorporated by reference in its entirety). This custom media is supplemented with 11 mM Glucose, 0.272 mM Sodium Pyruvate, and a dose curve of defined amino acid compositions (i.e., vehicle, LIVRQ+N-acetylcysteine, LIVRQ, RQ+N-acetylcysteine, N-acetylcysteine alone, LIV, or individually with L-Leucine, L-Isoleucine, L-Valine, L-Arginine, L-Glutamine, and L-Cysteine) at various ranges of concentrations. Cells were maintained in this defined media for 24 hours at 37° C., 5% CO2.
After pre-treatment, cells were exposed to free fatty acids (FFA) at 250 uM with a ratio of 2:1 (Oleate:Palmitate) supplemented with TNF-α (Thermofisher) at 1 ng/ml or vehicle. Cells were incubated with the FFAs mixture and the different amino acids combinations for 24 hours at 37° C., 5% CO2. After 24 hours incubation, media was removed for cytokine analysis and replaced by fresh media containing the same stimulus conditions and amino acid concentrations. Cells were incubated for an additional 48 hours for a total of 72 hours of FFA and TNFα stimulation.
Human CCL2 (MCP-1) was measured by ELISA (Human […] DuoSet ELISA, R&D Systems) at ⅕ or 1/10 dilution in 1× Reagent Diluent (Reagent Ancillary Kit 2, R&D Systems). Data were normalized to the specific per well cell density determined by nuclei count stained by Hoechst 3342 (Life technologies) in the fluorescence microscopy described below.

Experiment [2] relates to CCL18. In words: IL-4 induced CCL18 secretion in primary human monocyte-derived macrophages (ELISA). In kind it is cell-based. As to conditions: for Donor 1 CCL18 Measurements Mean / Donor 2 CCL18 Measurements Mean: relative to vehicle control; for CCL18 Measurements: Mean (fold change relative to vehicle control): IL-4 induced; for IL-4 induced CCL18 secretion (fold change relative to vehicle control): macrophages. As to the method:
Lymphocytes were purified from unpurified buffy coats (Research Blood Components) using Lymphocyte Separation Medium (Corning). After centrifugation, the PBMC layer was extracted and rinsed several times using Dulbecco's phosphate-buffered saline (DPBS; Gibco). After straining PBMCs through a 70 uM cell strainer, cells were resuspended and counted using a Cellometer K2 automated cell counter.
CD14+ cells were selected using EasySep™ Human CD14 Positive Selection Kit II ([…] Technologies) according to manufacturer-supplied protocols. Following isolation CD14+ cells were seeded into 10 cm tissue culture plates and differentiated into macrophages using M-CSF (Peprotech).
On day 0, primary human PBMC derived macrophages were seeded in Dulbecco's Modified Eagle Medium (DMEM) (Gibco) supplemented with penicillin-streptomycin (Hyclone) and 10% heat inactivated fetal bovine serum (HI-FBS) (Atlanta Bio) into 96-well microplates (ThermoFisher) and incubated overnight at 37° C., 5% CO2. On day 1, cells were washed once with DPBS and then treated with: • a. Amino acid free DMEM (US Biologicals) containing a defined custom amino acid concentration based on the mean physiological concentrations in blood based on values published in the Human Metabolome Database (HMDB), with 6 mM glucose, 1 mM sodium pyruvate, 10 mM HEPES, penicillin-streptomycin; or • b. The same medium described above with one amino acid or amino acid combination at various concentrations
On day 2, cells were treated with the same mediums described above supplemented with recombinant human interleukin-4 (IL-4; Peprotech). Control wells were treated with tofacitinib (Tocris) and IL-4, PBS with IL-4, or phosphate buffered saline (PBS) alone.
On day 3, the supernatant was collected and immediately frozen in −80° C. freezer. Cells were washed once with DPBS and viability was assessed using the WST-8 Cell Proliferation Cytotoxicity Assay (Dojindo) according to manufacturer-supplied protocol. Following the assay, cells were washed twice with PBS and fixed with 4% paraformaldehyde. Protein levels in supernatant samples were analyzed by ELISA for CCL18 using commercially available kits (R&D Systems) according to manufacturer-supplied protocols.

The mark [3] stands for this setting: Conc. 109 μM (baseline comparator).
[4] abbreviates: Conc. 153 μM (baseline comparator).

With `N=C(N)NCCC[C@H](N)C(=O)O` [Arginine, L-Arginine], the “MCP1 expression relative to Control- Donor 1, Mean” value is 2.37E−15 in experiment [1] (setting [3]), 5.114 in experiment [1] (Conc. 1088 μM), 6.527 in experiment [1] (Conc. 2720 μM) and 10.9386 in experiment [1] (Conc. 5440 μM). Further, the “MCP1 expression relative to Control- Donor 2, Mean” value is given as −4.7E−15 in experiment [1] (setting [3]), 24.95 in experiment [1] (Conc. 1088 μM), 24.06 in experiment [1] (Conc. 2720 μM) and 8.494 in experiment [1] (Conc. 5440 μM). Also, the “MCP1/CCL2 secretion (baseline subtracted)” value in experiment [1] was “increased”. The “Donor 1 CCL18 Measurements Mean” value in experiment [2] (Conc. 109 μM) came out at 1.131 fold change; in experiment [2] (Conc. 1088 μM), 1.068 fold change; in experiment [2] (Conc. 2720 μM), 1.121 fold change; in experiment [2] (Conc. 5440 μM), 1.277 fold change. Also, the “Donor 2 CCL18 Measurements Mean” value stood at 0.9634 fold change in experiment [2] (Donor 2, Conc. 109 μM); 0.9846 fold change in experiment [2] (Donor 2, Conc. 1088 μM); 1.031 fold change in experiment [2] (Donor 2, Conc. 2720 μM); 1.089 fold change in experiment [2] (Donor 2, Conc. 5440 μM). Besides, the “CCL18 Measurements: Mean (fold change relative to vehicle control)” value in experiment [2] (Donor 3, Conc. 109 μM) came to 1.138 fold change; in experiment [2] (Donor 3, Conc. 1088 μM), 0.9131 fold change; in experiment [2] (Donor 3, Conc. 2720 μM), 1.208 fold change; in experiment [2] (Donor 3, Conc. 5440 μM), 1.206 fold change.

As to `CC(C)C[C@H](N)C(=O)O` [Leucine, L-Leucine], the “MCP1 expression relative to Control- Donor 1, Mean” value in experiment [1] (setting [4]) is reported as 5.92E−16; in experiment [1] (Conc. 3054 μM), 3.34; in experiment [1] (Conc. 7635 μM) it was 1.896; in experiment [1] (Conc. 15270 μM), −1.368. In addition, the “MCP1 expression relative to Control- Donor 2, Mean” value is listed as −4.7E−15 in experiment [1] (setting [4]), 16.11 in experiment [1] (Conc. 3054 μM), −2.988 in experiment [1] (Conc. 7635 μM) and −26.6436 in experiment [1] (Conc. 15270 μM). For the same compound, the “MCP1/CCL2 secretion (baseline subtracted)” value in experiment [1] is recorded as “did not have an effect”. Further, the “Donor 1 CCL18 Measurements Mean” value in experiment [2] (Conc. 153 μM) is given as 1.124 fold change; in experiment [2] (Conc. 3054 μM), 1.302 fold change; in experiment [2] (Conc. 7635 μM), 1.247 fold change; in experiment [2] (Conc. 15270 μM) it was 1.227 fold change. Moreover, the “Donor 2 CCL18 Measurements Mean” value in experiment [2] (Donor 2, Conc. 153 μM) stood at 1.488 fold change; in experiment [2] (Donor 2, Conc. 3054 μM), 1.646 fold change; in experiment [2] (Donor 2, Conc. 7635 μM), 1.825 fold change; in experiment [2] (Donor 2, Conc. 15270 μM) it was 1.712 fold change. Further, the “CCL18 Measurements: Mean (fold change relative to vehicle control)” value in experiment [2] (Donor 3, Conc. 153 μM) stood at 1.242 fold change; in experiment [2] (Donor 3, Conc. 3054 μM), 1.502 fold change; in experiment [2] (Donor 3, Conc. 7635 μM) it was 1.558 fold change; in experiment [2] (Donor 3, Conc. 15270 μM) it was 1.193 fold change. The “IL-4 induced CCL18 secretion (fold change relative to vehicle control)” value in experiment [2] (Donor 2) and in experiment [2] (Donor 3) was “significantly increased” each time.
